Here are results for 18 compounds from US4960908A, “Isoflavone derivatives, salts thereof, and oncostatic and immunosuppressive agents” (Yamanouchi Pharmaceutical Co., Ltd., priority 1985, dated 1990).

Molecules are shown by their SMILES. Values after ≈ are worked out from the molar mass of the structure shown. Where a name gives a salt, the structure may show the parent alone. A value given as a limit tells only on which side of the number the result lay.

For assay [1], the target named is tyrosine-specific protein kinase derived from Rous sarcoma virus (src gene pp60^src) (Rous sarcoma virus (strain Schmidt-Ruppin A), UniProt P00524). In words: Inhibitory action against tyrosine-specific protein kinase activity. The format is biochemical. On the procedure: The inhibitory action against tyrosine-specific protein kinase activity of the compounds of this invention was measured according to the method described below using tyrosine-specific protein kinase derived from Rous sarcoma virus (src gene pp60^src).
Measurement of tyrosine-specific protein kinase activity (src gene pp60^src derived from Rous sarcoma virus) (refer to M. S. Colet, R. L. Ericson: Proceeding of the National Academy of Sciences of U.S.A., 75, 2021-2024, 1978).
3Y1 cells (fibroblasts derived from fetal rat kidney) transformed by Rous sarcome virus (RSV) were cultured, the cultured cells were collected and washed, RIPA buffer solution [containing 0.5% NP40, 0.1% sodium deoxycholate, 50 mM Tris-HCl (pH 7.2), 1 mM phenylmethylsulfonyl fluoride (PMSF) and 0.15M NaCl] was added to the collected cells, the mixture was allowed to stand at 0° C. for 30 minutes to effect solubilization, and the resulting mixture was centrifuged (100,000× g, 20 minutes). To the supernatant thus collected, was added antiserum obtained from a rabbit cancered by inoculation of RSV, the mixture was incubated at 0° C. for 30 to 60 minutes to cause pp60^src to react with antibody, and the immune complex was isolated by mixing with protein A/Sepharose-4B (Pharmacia) and washed with RIPA buffer. The total complex thus obtained (pp60^src /antibody/protein A/Sepharose-4B) was treated in a solution containing 20 mM Pipes/NaOH (pH 7.2), 5 mM MgCl2, 1 mM DTT and 10 μM [γ-^32 p]ATP (2 mCi/mMol) at 30° C. for five minutes to effect protein kinase reaction, which was terminated by addition a terminating solution containing SDS followed by boiling for three minutes. The reaction mixture was subjected to electrophoresis on 8% SDS/polyacrylamide gel and then to autoradiography, and the radioactivity of cut-out pp60^src band was measured on a liquid scintillation counter, thus quantifying the protein kinase reaction and calculating IC50 value.

A further assay deals with RSV-3Y1 cells. In words: Inhibitory action against the growth of tumor cells (RSV-3Y1 cells). The format is cell-based. The note with it: Rattus norvegicus, live cells counted after 1, 2, 3 and 4 days using trypan blue, read-out: IC50, Inhibition against the growth of RSV-3Y1. On the procedure: The inhibitory action of the compounds of this invention against the growth of tumor cells was examined by using cells of rats transformed by Rous sarcoma virus (RSV-3Y1 cells).
The inhibitory actions of the compounds of Examples 1 through 17 against the tyrosine-specific protein kinase activity and against the growth of RSV-3Y1 cells were measured according to the methods described earlier.

Assay [2] has as its system antibody-forming cells (ovine erythrocytes immunization). In words: Immunosuppressive action: antibody-formation inhibition (hemolytic plaques, antibody-forming cells in the spleen). The assay is classed as in vivo, male ddy mouse. The note with it: abdominal injection, once a day over four days, mouse.
Protocol: The spleen was taken out five days after immunization, and the number of antibody-formingcells contained in it was measured as follows according to the method of Cunningham [Cunningham A. J.: Nature, 207, 1106 (1965)]. The splenetic cells were suspended in Eagle's MEM (Nissui Pharmaceutical), ovine erythrocytes and guinea-pig complement were added to this suspension, the resulting mixture was put in a Cunningham chamber (with its both ends sealed with paraffin) and incubated at 37° C. for 90 minutes, and the number of hemolytic plaques (a) (the number of antibody-forming cells) was counted.
Similarly, the number of hemolytic plaques (b) was measured with a mouse not injected with the compound of this invention (control). The antibody-formation inhibition rate was calculated according to the following equation: [formula]
For assay [3] the following is noted: reported in J.A.C.S. (page 3447, 1951); cited from earlier work.
[4] abbreviates: 5 mg/Kg for each administration.
The mark [5] stands for this setting: 25 mg/Kg for each administration.

Sequence of tyrosine-specific protein kinase derived from Rous sarcoma virus (src gene pp60^src) (P00524 2-526): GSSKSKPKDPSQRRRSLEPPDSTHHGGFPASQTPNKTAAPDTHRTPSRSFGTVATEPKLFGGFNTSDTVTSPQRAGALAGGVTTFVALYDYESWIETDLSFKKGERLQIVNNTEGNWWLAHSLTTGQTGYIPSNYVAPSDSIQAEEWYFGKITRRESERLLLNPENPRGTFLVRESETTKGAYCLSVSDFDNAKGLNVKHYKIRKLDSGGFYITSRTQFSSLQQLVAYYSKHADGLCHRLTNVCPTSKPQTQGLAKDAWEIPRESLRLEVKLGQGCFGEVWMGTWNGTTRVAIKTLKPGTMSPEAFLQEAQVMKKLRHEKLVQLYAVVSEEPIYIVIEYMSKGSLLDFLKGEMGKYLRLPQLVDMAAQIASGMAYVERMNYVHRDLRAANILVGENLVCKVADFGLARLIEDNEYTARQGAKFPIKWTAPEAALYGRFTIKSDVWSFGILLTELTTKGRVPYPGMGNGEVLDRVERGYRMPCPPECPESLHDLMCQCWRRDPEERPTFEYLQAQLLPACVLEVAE

`CCOC(=O)C(=O)Oc1ccc(-c2c(C(=O)OCC)oc3cc(O)cc(O)c3c2=O)cc1` [Example 1, ethyl 4'-ethoxalyloxy-5,7-dihydroxy-2-isoflavonecarboxylate]: the IC50 was 2.26 µM in assay [1] and > 100 µg/mL with RSV-3Y1 cells. The Antibody-formation inhibition rate in assay [2] (1 mg/Kg for each administration) came to 14.4%; in assay [2] (setting [4]), 28.7%; in assay [2] (setting [5]), 40.0%; in assay [2] (50 mg/Kg for each administration), 75.8%.
Consider `COc1ccc(-c2c(CN(C)C)oc3cc(O)cc(O)c3c2=O)cc1` [Example 2, 2-(dimethylaminomethyl)-5,7-dihydroxy-4'-methoxyisoflavone hydrochloride], for which the figures for the IC50 (in assay [1]; in the assay on RSV-3Y1 cells) were > 293 µM and 18 µg/mL, respectively.
The matching figures for `COc1ccc(-c2c(CNC3CCCCC3)oc3cc(O)cc(O)c3c2=O)cc1` [Example 3, 2-(Cyclohexylaminomethyl)-5,7-dihydroxy-4'-methoxyisoflavone hydrochloride]: > 253 µM and 16 µg/mL.
On to `COc1ccc(-c2c(CNCCO)oc3cc(O)cc(O)c3c2=O)cc1.Cl` [Example 4, 5,7-Dihydroxy-2-[(2-hydroxyethylamino)methyl]-4'-methoxyisoflavone hydrochloride], for which the results for the IC50 (in assay [1]; with RSV-3Y1 cells) were > 254 µM and > 100 µg/mL, respectively.
In the case of `O=c1c(-c2ccc(O)cc2)c(CN2CCCCC2)oc2cc(O)cc(O)c12` [Example 5, 4',5,7-trihydroxy-2-piperidinomethylisoflavone], the IC50 in the assay on RSV-3Y1 cells is 9.5 µg/mL (≈ 25.9 µM).
As to `O=c1c(-c2ccc(O)cc2)c(CNC2=NCCS2)oc2cc(O)cc(O)c12` [Example 6, 4',5,7-Trihydroxy-2-[(2-thiazolin-2-ylamino)methyl]isoflavone], the concentration for half-maximal inhibition (IC50) in assay [1] is 39 µM; with RSV-3Y1 cells it was > 100 µg/mL.
Consider `NC(=O)c1oc2cc(O)cc(O)c2c(=O)c1-c1ccc(O)cc1` [Example 7, 4',5,7-trihydroxy-2-isoflavonecarboxamide], for which the 50% inhibitory concentration (IC50) with RSV-3Y1 cells is > 100 µg/mL.
For `CNC(=O)c1oc2cc(O)cc(O)c2c(=O)c1-c1ccc(O)cc1` [Example 8, 4',5,7-trihydroxy-N-methyl-2-isoflavonecarboxamide], the IC50 was 45.8 µM in assay [1] and > 100 µg/mL with RSV-3Y1 cells.
`O=C(NCCO)c1oc2cc(O)cc(O)c2c(=O)c1-c1ccc(O)cc1` [Example 9, 4',5,7-trihydroxy-N-(2-hydroxyethyl)-2-isoflavonecarboxamide]: the IC50 was 42 µM in assay [1] and > 100 µg/mL in the assay with RSV-3Y1 cells.
Consider `CSCc1oc2cc(O)cc(O)c2c(=O)c1-c1ccc(O)cc1` [Example 10, 4',5,7-trihydroxy-2-(methylthiomethyl)isoflavone], for which the IC50 in the assay on RSV-3Y1 cells came to 20 µg/mL (≈ 60.5 µM).
Regarding `O=c1c(-c2ccc(O)cc2)c(CSC2=NCCS2)oc2cc(O)cc(O)c12` [Example 11], the IC50 in the assay on RSV-3Y1 cells was 20 µg/mL (≈ 49.8 µM).
With `CCOC(=O)CSCc1oc2cc(O)cc(O)c2c(=O)c1-c1ccc(O)cc1` [Example 12, Ethyl [[(4',5,7-trihydroxy-2-isoflavonyl)methyl]thio]acetate], the IC50 in the assay on RSV-3Y1 cells is > 100 µg/mL. The Antibody-formation inhibition rate in assay [2] (setting [4]) is recorded as 25.3%; in assay [2] (setting [5]), 50.0%.
`O=c1c(-c2ccc(O)cc2)c(CSCC(O)CO)oc2cc(O)cc(O)c12` (stereo not drawn) [Example 13, 2-[[(2,3-Dihydroxypropyl)thio]methyl]-4', 5,7-trihydroxyisoflavone]: the IC50 in assay [1] was 10.2 µM; with RSV-3Y1 cells, > 100 µg/mL. The values for the Antibody-formation inhibition rate in assay [2] (setting [4]) and in assay [2] (setting [5]) were 27.0% and 76.6%, respectively.
Take `O=C(O)CCSCc1oc2cc(O)cc(O)c2c(=O)c1-c1ccc(O)cc1` [Example 14]: the IC50 in assay [1] was 25.7 µM; in the assay on RSV-3Y1 cells, 90 µg/mL (≈ 232 µM).
Turning to `COC(=O)c1oc2cc(O)cc(O)c2c(=O)c1-c1ccc(O)cc1` [Example 15], in the assay with RSV-3Y1 cells, the IC50 was 60 µg/mL (≈ 183 µM).
Same read-out and setting: the figure for `CC(C)OC(=O)c1oc2cc(O)cc(O)c2c(=O)c1-c1ccc(O)cc1` [Example 16, isopropyl 4',5,7-trihydroxy-2-isoflavonecarboxylate] is 25 µg/mL (≈ 70.2 µM).
Regarding `COCCOC(=O)c1oc2cc(O)cc(O)c2c(=O)c1-c1ccc(O)cc1` [Example 17, Methoxyethyl 4',5,7-trihydroxy-2-isoflavonecarboxylate], the IC50 in assay [1] is 16.1 µM; in the assay with RSV-3Y1 cells, 60 µg/mL (≈ 161 µM).
With `O=c1c(-c2ccc(O)cc2)coc2cc(O)cc(O)c12` [genistein, 5,7,4'-trihydroxyisoflavone], the estrogenic action result in assay [3] is “weak estrogenic action”.

What is called IC50 is the midpoint of a concentration-inhibition curve.
